# Data: the supplement of paper PMC7017272
# ± gives the standard deviation of the averaged measurements.
# Tests used:
# Conditions in all cases: treatment time: 3 days
# UT-SCC-28 [1] = assay: relative IC50 (midpoint of the fitted curve; maximal inhibition may be below 50%); higher = less potent
# Summary of the method: (§1)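 Three growth formats were used for HPV-negative HNSCC cell lines in 384-well plates at 500 cells/well: bare plastic, wells coated with Matrigel or Myogel (500 µg/mL), and embedding in Matrigel or Myogel plus rat collagen I. Compounds were added at five 10-fold concentrations, and after 3 days CellTiter-Glo 2.0 luminescence was recorded and normalised to vehicle (0.1% DMSO) and cell-killing control wells. IC50, maximal inhibition and drug sensitivity score came from percent-inhibition dose–response fitting in the FIMM pipeline.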
# UT-SCC-40 [2] = assay: as above
# Summary of the method: as §1
# UT-SCC-106A [3] = assay: as above
# Summary of the method: as §1
# UT-SCC-24B [4] = assay: as above
# Summary of the method: as §1
# UT-SCC-8 [5] = assay: as above
# Summary of the method: as §1
# UT-SCC-24A [6] = assay: maximal % inhibition of viability relative to DMSO; higher = stronger effect
# Protocol: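 HNSCC cell lines (500 cells/well, 384-well) were cultured on plastic, on top of (2D) or embedded (3D) in Matrigel or human leiomyoma matrix Myogel (500 ug/mL; Myogel 3D mixed with rat collagen I). Cells were treated for 3 days with 5 ten-fold concentrations of each drug, and viability was read by CellTiter-Glo. Viability was normalised to DMSO (0% inhibition) and 100 uM benzethonium chloride (100% inhibition) controls and fitted with the FIMM DSRT pipeline to give IC50 (nM), maximal % inhibition and the drug sensitivity score (DSS). Suffixes _1/_2/_3 on drug names are replicates.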
# UT-SCC-24A [7] = assay: drug sensitivity score (DSS); higher = more sensitive
# Protocol: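 HNSCC cell lines (500 cells/well, 384-well) were cultured on plastic, on top of (2D) or embedded (3D) in Matrigel or human leiomyoma matrix Myogel (500 ug/mL; Myogel 3D mixed with rat collagen I). Cells were treated for 3 days with 5 ten-fold concentrations of each drug, and viability was read by CellTiter-Glo. Suffixes _1/_2/_3 on drug names are replicates.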
# UT-SCC-44 = assay: maximal % inhibition of viability relative to DMSO; higher = stronger effect
# Protocol: (§2)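 HNSCC cell lines (500 cells/well, 384-well) were cultured on plastic, on top of (2D) or embedded (3D) in Matrigel or human leiomyoma matrix Myogel (500 ug/mL; Myogel 3D mixed with rat collagen I). Cells were treated for 3 days with 5 ten-fold concentrations of each drug, and viability was read by CellTiter-Glo. Viability was normalised to DMSO and benzethonium chloride controls and fitted with the FIMM DSRT pipeline to give IC50 (nM), maximal % inhibition and DSS. Suffixes _1/_2/_3 are replicates. Only inhibition-mode (IC50) fits are kept.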
# UT-SCC-28 [8] = assay: as above
# Protocol: as §2
# UT-SCC-73 = assay: as above
# Protocol: as §2
# UT-SCC-42B = assay: as above
# Protocol: as §2
# UT-SCC-40 [9] = assay: as above
# Protocol: as §2
# UT-SCC-42A = assay: as above
# Protocol: as §2
# UT-SCC-81 = assay: as above
# Protocol: as §2
# UT-SCC-14 = assay: as above
# Protocol: as §2
# UT-SCC-106A [10] = assay: as above
# Protocol: as §2
# UT-SCC-24B [11] = assay: as above
# Protocol: as §2
# UT-SCC-8 [12] = assay: as above
# Protocol: as §2
# [13] = culture condition: embedded in Matrigel
# [14] = culture condition: embedded in Myogel + collagen I
# [15] = culture condition: on top of Matrigel
# [16] = culture condition: plastic 2D (no matrix)
# [17] = culture condition: on top of Myogel
smiles,measurement,setting,value
CN(C)C/C=C/C(=O)Nc1cc2c(Nc3ccc(F)c(Cl)c3)ncnc2cc1O[C@H]1CCOC1 [Afatinib],relative IC50,UT-SCC-28 [1]; [13],> 989 nM
same,relative IC50,UT-SCC-28 [1]; [14],> 989 nM
same,relative IC50,UT-SCC-40 [2]; [13],21.3 nM
same,relative IC50,UT-SCC-40 [2]; [15],24.2 nM
same,relative IC50,UT-SCC-40 [2]; [16],33.1 nM
same,relative IC50,UT-SCC-106A [3]; [13],8.12 nM
same,relative IC50,UT-SCC-106A [3]; [14],> 989 nM
same,relative IC50,UT-SCC-106A [3]; [15],7.76 nM
same,relative IC50,UT-SCC-106A [3]; [16],11.7 nM
same,relative IC50,UT-SCC-24B [4]; [13],31.2 nM
same,relative IC50,UT-SCC-24B [4]; [15],23 nM
same,relative IC50,UT-SCC-24B [4]; [16],12.7 nM
same,relative IC50,UT-SCC-8 [5]; [13],19.7 nM
same,relative IC50,UT-SCC-8 [5]; [15],21 nM
same,relative IC50,UT-SCC-8 [5]; [16],21.6 nM
same,maximal % inhibition of viability,UT-SCC-24A [6]; [13],79.9 ± 1.1%
same,maximal % inhibition of viability,UT-SCC-24A [6]; [14],38.8 ± 2.3%
same,maximal % inhibition of viability,UT-SCC-24A [6]; [15],68.23 ± 0.59%
same,maximal % inhibition of viability,UT-SCC-24A [6]; [17],20.3 ± 3.7%
same,maximal % inhibition of viability,UT-SCC-24A [6]; [16],67.1 ± 4%
same,drug sensitivity score,UT-SCC-24A [7]; [13],20.6 ± 3.3 DSS
same,drug sensitivity score,UT-SCC-24A [7]; [14],8.9 ± 5.3 DSS
same,drug sensitivity score,UT-SCC-24A [7]; [15],16.6 ± 2.1 DSS
same,drug sensitivity score,UT-SCC-24A [7]; [17],2.93 ± 2.1 DSS
same,drug sensitivity score,UT-SCC-24A [7]; [16],15.6 ± 3.1 DSS
same,maximal % inhibition of viability,UT-SCC-44; [13],7.03 ± 6.5%
same,maximal % inhibition of viability,UT-SCC-44; [14],1 ± 1.7%
same,maximal % inhibition of viability,UT-SCC-44; [15],9.97 ± 9.3%
same,maximal % inhibition of viability,UT-SCC-44; [17],9.63 ± 7.3%
same,maximal % inhibition of viability,UT-SCC-44; [16],4.6 ± 5.6%
same,maximal % inhibition of viability,UT-SCC-28 [8]; [13],3.87 ± 5.3%
same,maximal % inhibition of viability,UT-SCC-28 [8]; [14],14.7 ± 6.2%
same,maximal % inhibition of viability,UT-SCC-28 [8]; [15],12 ± 4%
same,maximal % inhibition of viability,UT-SCC-28 [8]; [16],8.87 ± 2.8%
same,maximal % inhibition of viability,UT-SCC-73; [13],20.2 ± 7.8%
same,maximal % inhibition of viability,UT-SCC-73; [14],25.6 ± 22%
same,maximal % inhibition of viability,UT-SCC-73; [15],17.1 ± 3.4%
same,maximal % inhibition of viability,UT-SCC-73; [17],11.5 ± 7.3%
same,maximal % inhibition of viability,UT-SCC-73; [16],16.7 ± 4.8%
same,maximal % inhibition of viability,UT-SCC-42B; [13],73.7 ± 4.9%
same,maximal % inhibition of viability,UT-SCC-42B; [15],54.4 ± 3.4%
same,maximal % inhibition of viability,UT-SCC-42B; [17],9.53 ± 0.45%
same,maximal % inhibition of viability,UT-SCC-42B; [16],37.8 ± 4.5%
same,maximal % inhibition of viability,UT-SCC-40 [9]; [13],80.3 ± 2.6%
same,maximal % inhibition of viability,UT-SCC-40 [9]; [14],26.2 ± 14%
same,maximal % inhibition of viability,UT-SCC-40 [9]; [15],74.2 ± 2.8%
same,maximal % inhibition of viability,UT-SCC-40 [9]; [17],22.6 ± 4.6%
same,maximal % inhibition of viability,UT-SCC-40 [9]; [16],59.8 ± 7.3%
same,maximal % inhibition of viability,UT-SCC-42A; [13],51.6 ± 4%
same,maximal % inhibition of viability,UT-SCC-42A; [14],13.4 ± 9.6%
same,maximal % inhibition of viability,UT-SCC-42A; [15],54 ± 2.1%
same,maximal % inhibition of viability,UT-SCC-42A; [17],26.6 ± 1.1%
same,maximal % inhibition of viability,UT-SCC-42A; [16],50.7 ± 2.2%
same,maximal % inhibition of viability,UT-SCC-81; [13],88.3 ± 2.3%
same,maximal % inhibition of viability,UT-SCC-81; [14],33.4 ± 37%
same,maximal % inhibition of viability,UT-SCC-81; [15],83.3 ± 2.2%
same,maximal % inhibition of viability,UT-SCC-81; [17],23 ± 7.8%
same,maximal % inhibition of viability,UT-SCC-81; [16],71.2 ± 5%
same,maximal % inhibition of viability,UT-SCC-14; [13],74.9 ± 5.2%
same,maximal % inhibition of viability,UT-SCC-14; [14],44.3 ± 12%
same,maximal % inhibition of viability,UT-SCC-14; [15],74.6 ± 7.7%
same,maximal % inhibition of viability,UT-SCC-14; [17],47.3 ± 16%
same,maximal % inhibition of viability,UT-SCC-14; [16],71.4 ± 10%
same,maximal % inhibition of viability,UT-SCC-106A [10]; [13],43.3 ± 3.5%
same,maximal % inhibition of viability,UT-SCC-106A [10]; [14],7.93 ± 2.1%
same,maximal % inhibition of viability,UT-SCC-106A [10]; [15],56.6 ± 1.3%
same,maximal % inhibition of viability,UT-SCC-106A [10]; [17],8.37 ± 4.6%
same,maximal % inhibition of viability,UT-SCC-106A [10]; [16],60.4 ± 4.3%
same,maximal % inhibition of viability,UT-SCC-24B [11]; [13],63.2 ± 3%
same,maximal % inhibition of viability,UT-SCC-24B [11]; [14],37.8 ± 14%
same,maximal % inhibition of viability,UT-SCC-24B [11]; [15],56.5 ± 1.6%
same,maximal % inhibition of viability,UT-SCC-24B [11]; [17],21.4 ± 3.8%
same,maximal % inhibition of viability,UT-SCC-24B [11]; [16],71.4 ± 3.5%
same,maximal % inhibition of viability,UT-SCC-8 [12]; [13],96.67 ± 0.42%
same,maximal % inhibition of viability,UT-SCC-8 [12]; [14],22.4 ± 19%
same,maximal % inhibition of viability,UT-SCC-8 [12]; [15],94.3 ± 0.36%
same,maximal % inhibition of viability,UT-SCC-8 [12]; [17],45.4 ± 12%
same,maximal % inhibition of viability,UT-SCC-8 [12]; [16],90.7 ± 1.6%
